{"source": "patent US20070244138A1", "about": "“Mercaptoimidazoles as Ccr2 Receptor Antagonists” (JANSSEN PHARMACEUTICA N.V., priority 2004, published 2007)"}
{"molecular_target": "T1, CCR2B (Homo sapiens, UniProt P41597)", "T1 construct": "expressed in transfected cells; host or cells: CHO cells (membrane preparation)", "T1 sequence (P41597 1-360 isoform P41597-2)": "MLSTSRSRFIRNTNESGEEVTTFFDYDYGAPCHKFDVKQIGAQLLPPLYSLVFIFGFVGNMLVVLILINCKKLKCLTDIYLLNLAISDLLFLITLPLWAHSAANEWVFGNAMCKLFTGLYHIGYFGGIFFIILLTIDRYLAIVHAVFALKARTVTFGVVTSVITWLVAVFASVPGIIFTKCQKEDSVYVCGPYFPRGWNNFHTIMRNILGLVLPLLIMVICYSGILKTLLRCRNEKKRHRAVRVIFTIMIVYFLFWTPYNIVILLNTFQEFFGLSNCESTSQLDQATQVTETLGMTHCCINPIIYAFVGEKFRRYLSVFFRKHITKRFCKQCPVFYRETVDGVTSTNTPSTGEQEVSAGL", "experiment": "125I-MCP-1 radioligand binding assay, membranes from CCR2B-transfected CHO cells", "details": "competition with 0.15 nM 125I-MCP-1, 90 minutes at 25° C.; Cheng-Prusoff", "method": "Radioligand Binding Assay.\n^125I-MCP binding assays performed in 96-well plates with 40 μg of protein per well. Compounds were dissolved and diluted in DMSO to 100× dilutions. A 10× concentration range of compounds was prepared in binding buffer (10% DSMO). Competition binding assay contained the following components in a total volume of 250 μl of the appropriate compound dilution (final concentration of 1% DMSO), 200 μl membranes from CCR2B-transfected CHO cells dissolved in binding buffer and 25 μl ^125I-MCP-1(Bolton and Hunter labeled, Amersham, specific activity=2000 Ci/mmol, 0.15 nM final). Binding buffer was composed of 25 mM HEPES, 5 mM MgCl2, 1 mM CaCl2, 0.5% protease-free bovine serum albumin, pH 7.4. After 90 minutes incubation at 25° C., membranes were harvested on GF/B filters -presoaked in 0.5% polyethylenimene, followeded by washing with buffer containing 25 mM HEPES, 5 mM MgCl2, 1 mM CaCl2, […], pH 7.4. Filter bound radioactivity was determined by liquid scintillation counting. EC50 values (μM) and Ki values (μM) were calculated. […] EC50 values and Ki values were calculated using non-linear regression in Graphpad Prism. […]", "units": {"Ki": "nM"}}
{"smiles": "CCC(c1ccc(Cl)c(Cl)c1)n1c(-c2ccnc(N)n2)c[nH]c1=S", "note": "(stereo not shown) [Compound 1]", "Ki": 170}
{"molecular_target": "T2, CCR2 receptor (Homo sapiens, UniProt P41597)", "T2 construct": "host or cells: THP-1 (human monocytic cell line)", "T2 sequence (P41597 1-360 isoform P41597-2)": "T1 sequence (P41597 1-360 isoform P41597-2)", "experiment": "Inhibition of MCP-1 induced Ca-flux in human THP-1 cells", "format": "cell-based", "details": "-log IC50 (molar), inhibition of specific MCP-1 induced Ca2+ flux, 10^-7 M hMCP-1, 20 min pre-incubation, FLIPR", "method": "D. Pharmacological Example Inhibition of MCP-1 Induced Ca-Flux in Human THP-1 Cells\nMCP-1 binding to the CCR2 receptor induces a rapid and transient intracellular release of Ca^2+ (secondary messenger) in several cell lines (Charo et al, PNAS 1994). Free Ca^2+ levels can be measured using a Ca^2+ sensitive dye. When the CCR2 receptor is blocked with a CCR2 receptor antagonist, the MCP-1 induced release of Ca^2+ is inhibited.\nHuman THP-1 cells (monocytic cell line, ATCC TIB-202) were cultured in RPMI 1640 medium supplemented with 10% fetal calf serum (FCS), 1% L-Glutamine, penicillin (50 U/ml) and streptomycin (50 μg/ml) (all GIBCO BRL, Gent). After centrifugation, cells were loaded for 30 minutes with the Ca^2+ sensitive fluorescent dye Fluo-3 AM (Molecular Probes, Leiden, Netherlands) (2 million cells/ml in RPMI medium containing 4 μM Fluo-3 AM, 20 mM HEPES, 0.1% Bovine Serum Albumin (BSA) and 5 mM probenecid). Excess dye was removed by 3-fold washing with buffer (5 mM HEPES, 140 mM NaCl, 1 mM MgCl2, 5 mN KCl, 10 mM glucose, 2.5 mM probenecid, 1.25 mM CaCl2, 0.1% BSA; all further incubations were done in this buffer). Cells were plated at a density of 150 000 cells/well in dark-wall 96-well plates (Costar, Cambridge, Mass.) and sedimented by centrifugation (1 minute). The cells were pre-incubated for 20 minutes with test compound Then, 10^−7 M hMCP-1 (Bachem, Bubendorf, Switserland) was added. Changes in intracellular free Ca^2+ concentration were measured using the Fluorescent Imaging Plate Reader (FLIPR, Molecular Devices, Munchen, Germany). Fluorescence was recorded every second from 10 seconds before the addition of the MCP-1 till 2 minutes after the addition (first minute: 60 records with 1 second intervals, second minute 20 records with 3 second intervals). The maximal fluorescence obtained during this time frame was used for further calculations.\nTable 4 reports pIC50 values obtained in the above-described test for compounds of formula (I). pIC50 defines −log IC5o wherein IC50 is the molar concentration of the test compound which inhibits 50% of specific MCP-1 induced Ca^2+ flux.", "units": {"IC50": "nM"}}
{"smiles": "CCC(c1ccc(Cl)c(Cl)c1)n1c(-c2ccnc(N)n2)c[nH]c1=S", "note": "(stereo not shown) [Compound 1]", "IC50": 35.5}
{"smiles": "CCC(c1ccc(Cl)c(Cl)c1)n1c(-c2nc(C)no2)cnc1S", "note": "(stereo not shown) [Compound 5]", "IC50": 200}
{"smiles": "CCC(c1ccc(Cl)c(Cl)c1)n1c(-c2nnc(N)o2)cnc1S", "note": "(stereo not shown) [Compound 9]", "IC50": 33.1}
{"smiles": "CCC(c1ccc(Cl)c(Cl)c1)n1c(-c2cc[nH]n2)c[nH]c1=S", "note": "(stereo not shown) [Compound 11]", "IC50": 724}
{"smiles": "CCC(c1ccc(Cl)c(Cl)c1)n1c(-c2ncn[nH]2)c[nH]c1=S", "note": "(stereo not shown) [Compound 12]", "IC50": 398}
{"smiles": "CCC(c1ccc(Cl)c(Cl)c1)n1c(-c2nnc(C)o2)c[nH]c1=S", "note": "(stereo not shown) [Compound 14]", "IC50": 417}
{"smiles": "CCC(c1ccc(Cl)c(Cl)c1)n1c(-c2ccnc(C)n2)c[nH]c1=S", "note": "(stereo not shown) [Compound 19]", "IC50": 832}
{"smiles": "CCC(c1ccc(Cl)c(Cl)c1)n1c(-c2ccnc(NC)n2)c[nH]c1=S", "note": "(stereo not shown) [Compound 20]", "IC50": 41.7}
{"smiles": "CCC(c1ccc(Cl)c(Cl)c1)n1c(-c2ccnc(NCCO)n2)c[nH]c1=S", "note": "(stereo not shown) [Compound 21]", "IC50": 34.7}
{"smiles": "CCC(c1ccc(Cl)c(Cl)c1)n1c(-c2ccnc(N3CCNCC3)n2)c[nH]c1=S", "note": "(stereo not shown) [Compound 24]", "IC50": 631}
{"smiles": "CCC(c1ccc(C(F)(F)F)c(F)c1)n1c(-c2nc(C)no2)c[nH]c1=S", "note": "(stereo not shown) [Compound 26]", "IC50": 219}
{"tested_on": "not given", "experiment": "not given", "details": "not given", "units": {"melting point": "°C"}}
{"smiles": "CCCC(c1ccc(F)c(F)c1)n1c(-c2nnc(C)o2)c(COC)[nH]c1=S", "note": "(stereo not shown) [Compound 10]", "melting point": "97.8 to 97.9"}
